pIC50, pKi: −log10 of the molar value.
Tests used:
[1] = Hepatic intrinsic clearance in liver microsomes; type: in vitro ADME; settings: pH 7.4; human liver microsomes, LC/MS/MS; read-out: HLM CL
Protocol: To 500 μl of 200 mM Na^+ K^+ phosphate buffer (pH 7.4), 100 μl of 1 mM EDTA solution was added followed by 100 μl of 2 mg protein/ml human liver microsomes. A 10 μl aliquot of test compound (20 mM stock in 50% acetonitrile) was diluted further with 40 μl of H2O (total assay volume 750 μl. Assay mixture is incubated for 5 minutes at 37° C. The assay was initiated by addition of 250 μl of 4 mM NADPH solution. Incubation was continued at 37° C. Separate reaction mixtures were prepared for 0, 5, 10, 20, and 30 min durations. Individual reactions were halted by addition of 150 μl of 100% acetonitrile. Internal standard (10 μl of 100 ng/ml diazepam solution) was added. Concentration of the test compound in each separate reaction was measured using LC/MS/MS and a standard curve for the test compound according to standard procedures.
The hepatic intrinsic clearance in liver microsome was determined by the following procedure described by Davies and Morris (Davies, B. and Morris, T. (19930) Physiological parameters in laboratory animals and humans. Pharm Res. 10:1093-1095) detailing the relationship of in vitro clearance to physiological parameters in animals and human subjects.
The amount of compound remaining at each time point was expressed relative to the amount present in the initial (0 min) incubation. The relationship of relative amount vs. time was used to determine the half life of the compound in the microsome assay. The concentration independent rate constant, k1, was determined from rectangular hyperbolic fit:
% remaining=100*(e^−k^1^T)
where T is time (in minutes), from the relationship of relative amount vs. time. Alternatively, k1 was determined from a transform of the equation, where
Conversion to in vivo clearance was obtained from the relation (Davies and Morris, 1993):
where v=velocity of metabolism, [S] is the concentration of the compound, and volumes are expressed in mL.

Cathepsin D = Cathepsin D (UniProt P07339); assay: Inhibition of cathepsin D activity (MALDI-TOF, substrate peptide); type: biochemical; settings: substrate peptide NH3-ELDLAVEFWHDR-CO2, pH 4.1, 37 degrees C.; read-out: CD Ki
memapsin 2 [2] = target: memapsin 2 (Homo sapiens, UniProt P56817); assay: Inhibition of memapsin 2 beta-secretase activity (fluorogenic substrate FS-2); type: biochemical; settings: pH 4, 37° C., read-out: M2 Ki
Protocol: Potency of compounds were determined by measurement of their inhibition of memapsin 2 activity toward a fluorescent substrate. Kinetic inhibition experiments were performed using the procedure as described in Ermolieff, et al. (Biochemistry 39:12450-12456 (2000), the teachings of which are incorporated hereby in their entirety). Briefly, assays were performed at pH 4, 37° C., by pre-incubation of memapsin 2 enzyme with compound for 20 minutes. Activity measurements were initiated by addition of a fluorogenic substrate FS-2 (Bachem Americas, Torrance, Calif.) MCA-SEVNLDAEFR-DNP (SEQ ID NO.: 2). The substrate was derived from 10 amino acids of the human amyloid precursor protein (APP), with the Swedish variant amino acids at the beta-secretase cleavage site. The terminal amino acid was modified from arginine to lysine to facilitate derivatization with a functional group for detection by autofluorescence. The amino acid sequence of the “core” peptide of the substrate is SEVNLDAEFK (SEQ ID NO.: 3). The amino terminus was derivatized with (7-methoxycoumarin-4-yl)acetyl (MCA), and the epsilon amine of the lysine side chain of the terminal residue (K in sequence SEVNLDAEFK (SEQ ID NO.: 3)) was derivatized with 2,4-dinitrophenyl (DNP).

memapsin 2 [3] = target: T1, memapsin 2 (Cricetulus griseus, UniProt G3IAK4); assay: Cellular Aβ IC50 determination (Aβ40 sandwich ELISA); type: cell-based; settings: Chinese hamster ovary cells over-expressing human APP695 (London and Swedish mutations), Aβ40, 24 h; read-out: M2 IC50
T1 construct: endogenous in cells; host or cells: Chinese hamster ovary cells over-expressing human APP695 (London + Swedish)
Protocol: The potency of compounds against memapsin 2 activity was determined in a cellular assay of Aβ production. […] Chinese hamster ovary cells that over-express human APP695 with the London and Swedish mutations were seeded in multi-well plates at 10% confluency. Compounds are dissolved in DMSO to concentrations near 1 mM, and diluted into culture media to a final concentration near 4 μM (final 0.4% DMSO). Compounds were diluted serially and applied to cells in multi-well plates 48 h after seeding. Incubation was continued in 5% CO2 at 37° C. for 24 h. Aliquots were removed and assayed for Aβ40 content using a sandwich ELISA (BioSource International). Amount of Aβ40 over the range of concentration of compounds, relative to control incubations, were fit to a 4-parameter IC50 model.

CYP3A4 = target: T2, CYP3A4 (Homo sapiens, UniProt P08684); assay: Determination of CYP3A4 inhibition (midazolam metabolism); type: in vitro ADME; settings: human liver microsomes, midazolam substrate
T2 construct: with human liver microsomes (HLM) at a final protein concentration of 0.1 mg/mL protein; from tissue; host or cells: human liver microsomes
Protocol: To evaluate the drug-drug interaction potential for compounds, the potency to inhibit the major metabolic cytochrome CYP450 isoform 3A4 was assessed. The inhibition constant Ki was determined for inhibition of the metabolism of midazolam, a CYP3A4 substrate.
CYP3A4 Ki assays were performed following a recently published protocol with slight modifications (Di, L., Kerns, E. H., Li, S. Q., and Carter, G. T. (2007) Comparison of cytochrome P450 inhibition assays for drug discovery using human liver microsomes with LC-MS, rhCYP450 isozymes with fluorescence, and double cocktail with LC-MS. International Journal of Pharmaceutics 335: 1-11). The P450 inhibition assay was performed in 96-well plates at 37.2° C. in a shaking incubator. […]
After incubation for the specified time in a humidified shaking incubator, 20 μL of the reaction mixture was removed and the reactions were terminated by adding […] of cold acetonitrile. […] Formation of 1′-hydroxymidazolam was measured by monitoring a specific SRM (342>203) transition for the CYP3A4 metabolite.
Data were expressed as the relative quantity of midazolam metabolite relative to control incubations. Initial velocities were obtained by multiplying the relative quantity by the initial substrate concentration and dividing by the incubation duration. […]

T1 sequence (G3IAK4 22-501): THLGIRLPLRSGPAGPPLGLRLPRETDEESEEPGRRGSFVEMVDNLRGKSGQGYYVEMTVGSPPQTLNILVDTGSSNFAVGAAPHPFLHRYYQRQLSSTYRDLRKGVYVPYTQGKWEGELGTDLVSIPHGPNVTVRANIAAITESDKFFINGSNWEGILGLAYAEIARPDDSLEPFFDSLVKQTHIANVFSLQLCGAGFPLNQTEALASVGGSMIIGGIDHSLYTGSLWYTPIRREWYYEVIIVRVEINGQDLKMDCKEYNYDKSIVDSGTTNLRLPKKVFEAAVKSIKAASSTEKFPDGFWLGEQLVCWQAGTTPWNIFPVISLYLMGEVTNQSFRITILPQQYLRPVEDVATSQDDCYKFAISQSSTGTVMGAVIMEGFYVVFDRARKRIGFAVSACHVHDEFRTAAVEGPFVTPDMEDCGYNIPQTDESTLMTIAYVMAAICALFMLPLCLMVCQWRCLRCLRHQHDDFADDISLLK
memapsin 2 (Homo sapiens, UniProt P56817), sequence (P56817 46-501): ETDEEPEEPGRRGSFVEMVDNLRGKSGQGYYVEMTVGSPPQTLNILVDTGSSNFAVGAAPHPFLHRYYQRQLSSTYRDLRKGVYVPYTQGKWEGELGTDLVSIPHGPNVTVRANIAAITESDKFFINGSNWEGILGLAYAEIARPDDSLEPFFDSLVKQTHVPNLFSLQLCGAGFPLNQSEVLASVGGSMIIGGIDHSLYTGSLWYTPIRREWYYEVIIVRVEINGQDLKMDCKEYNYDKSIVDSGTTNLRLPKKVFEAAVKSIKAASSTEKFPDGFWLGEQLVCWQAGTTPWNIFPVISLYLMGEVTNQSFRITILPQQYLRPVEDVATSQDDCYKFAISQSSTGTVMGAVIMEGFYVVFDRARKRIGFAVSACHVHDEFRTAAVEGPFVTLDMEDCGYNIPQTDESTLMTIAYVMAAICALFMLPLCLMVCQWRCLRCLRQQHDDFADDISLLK
T2 sequence (P08684 whole entry): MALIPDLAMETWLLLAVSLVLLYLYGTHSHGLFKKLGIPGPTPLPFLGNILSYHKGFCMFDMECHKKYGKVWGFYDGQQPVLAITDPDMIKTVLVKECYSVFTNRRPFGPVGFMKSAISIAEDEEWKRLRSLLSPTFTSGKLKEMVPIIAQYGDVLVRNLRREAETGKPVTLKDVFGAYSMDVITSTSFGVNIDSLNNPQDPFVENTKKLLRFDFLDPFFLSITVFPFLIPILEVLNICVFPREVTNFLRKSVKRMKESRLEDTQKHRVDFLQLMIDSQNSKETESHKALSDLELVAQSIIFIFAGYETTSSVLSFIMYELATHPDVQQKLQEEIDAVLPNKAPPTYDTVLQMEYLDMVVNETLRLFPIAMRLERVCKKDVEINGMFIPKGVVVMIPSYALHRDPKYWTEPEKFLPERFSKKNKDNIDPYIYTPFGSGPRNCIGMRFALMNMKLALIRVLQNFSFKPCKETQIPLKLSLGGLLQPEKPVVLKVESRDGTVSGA

CLint scaled at 200 μM [1] [mL/min/kg]	pKi (Cathepsin D)	pKi (memapsin 2 [2])	pIC50 (memapsin 2 [3])	pKi (CYP3A4)	Compound
< 400	< 6.30	> 6.60	6.00 to 6.30		Cc1csc([C@H]2CCCN2C(=O)c2cc(C(=O)N[C@@H](Cc3cccc(F)c3)[C@H](O)[C@H]3CCCN3)cc(N3CCCS3(=O)=O)c2)n1 [1-91, N-((1R,2S)-1-hydroxy-3-(5-fluorophenyl)-1-((R)-pyrrolidin-2-yl)propan-2-yl)-3-((R)-2-(4-methylthiazol-2-yl)pyrrolidine-1-carbonyl)-5-([1,2]thiazolidyl-S,S-dioxide)benzamide]
< 400	< 6.30	> 6.60	> 6.30		Cc1csc([C@H]2CCCN2C(=O)c2cc(C(=O)N[C@@H](Cc3cc(F)cc(F)c3)[C@H](O)[C@H]3CCCN3)cc(N3CCCS3(=O)=O)c2)n1 [1-90, N-((1R,2S)-1-hydroxy-3-(3,5-difluorophenyl)-1-((R)-pyrrolidin-2-yl)propan-2-yl)-3-((R)-2-(4-methylthiazol-2-yl)pyrrolidine-1-carbonyl)-5-([1,2]thiazolidyl-S,S-dioxide)benzamide]
< 400	< 6.30	> 6.60	> 6.30	< 5.00	Cc1csc([C@H]2CCCN2C(=O)c2cc(C(=O)N[C@@H](Cc3cc(F)cc(F)c3)[C@H](O)[C@H]3CCCN3)cc(N3CCCCS3(=O)=O)c2)n1 [1-87, N-((1R,2S)-1-hydroxy-3-(3,5-difluorophenyl)-1-((R)-pyrrolidin-2-yl)propan-2-yl)-3-((R)-2-(4-methylthiazol-2-yl)pyrrolidine-1-carbonyl)-5-(thiazinanyl-S,S-dioxide)benzamide]
< 400			> 6.30	< 5.00	Cc1csc([C@H]2CCCN2C(=O)c2cc(C(=O)N[C@@H](Cc3ccccc3)[C@H](O)[C@H]3CCCN3)cc(N3CCCCS3(=O)=O)c2)n1 [1-78, N-((1R,2S)-1-hydroxy-3-phenyl-1-((R)-pyrrolidin-2-yl)propan-2-yl)-3-((R)-2-(4-methylthiazol-2-yl)pyrrolidine-1-carbonyl)-5-(thiazinanyl-S,S-dioxide)benzamide]
< 400	< 6.30	> 6.60	> 6.30		Cc1csc([C@H]2CCCN2C(=O)c2cc(C(=O)N[C@@H](Cc3ccccc3)[C@H](O)[C@H]3CCCN3)cc(N3CCCS3(=O)=O)c2)n1 [1-89, N-((1R,2S)-1-hydroxy-3-phenyl-1-((R)-pyrrolidin-2-yl)propan-2-yl)-3-((R)-2-(4-methylthiazol-2-yl)pyrrolidine-1-carbonyl)-5-([1,2]thiazolidyl-S,S-dioxide)benzamide]

From patent US20130059840A1, “SULFONAMIDO PYRROLIDINE COMPOUNDS WHICH INHIBIT BETA-SECRETASE ACTIVITY AND METHODS OF USE THEREOF” (CoMentis, Inc., priority 2009, published 2013)
